Measured values as given in patent US9815865B2, “Preparations of hydrophobic therapeutic agents, methods of manufacture and use thereof” (Aciex Therapeutics, Inc., priority 2013, dated 2017).
Converted amounts (≈) assume the structure as drawn. Read-outs that look alike come from different tables or passages of the source. Blank lines part the entries; values can stand above or below the molecule they belong to.

What was measured:
Tap density = assay type: physicochemical
[1] = In-vitro dissolution study in vitreous humor; assay type: physicochemical, Bovine; conditions: crystals at 10 μm, 37° C., versus micronized TA at 10μ (FIG. 50)
Method: The rate of dissolution of ACX-TA crystals versus micronized TA in vitreous humor was studied. Bovine eyes were obtained fresh, and the vitreous humor was extracted. The vitreous humor was stored at 5° C., prior to use. 1 ml of crystals of various sizes (1.78 μm, 4.7 μm, 10.18 μm, or 15 μm) were incubated in a shaking incubator at 37° C. Crystals were prepared as described in Table 37 or 38. The crystals of 1.78 μm were prepared using citrate buffer and were of Form B, and the crystals of 4.7 μm, 10.18 μm, and 15 μm were prepared using phosphate buffer and were of Form C.

[2] = Saturated solubility and rate of dissolution of FP
Method: The saturated solubility of FP was measured by HPLC for the nanocrystals produced by the batch process of the invention, FP homogenized and FP stock material.

[3] = Stability of FP nanocrystal suspensions (assay, impurities, pH, particle size); assay type: physicochemical
From the text: This phase III composition was also stable chemically for more than 4 weeks at 40 degrees C. This combination of polymers also maintains the particle size at its original size for 5-14 days.
The stability of the nanocrystals is controlled by the pH of phase III, which is formed by the combination of phase I and phase II. A 20 gram batch of nanocrystals were produced at pH 5.5 and placed on stability at 25 degrees C. Another 20 gram batch was produced at pH 7.5 and stability determined at 25 degrees C. for 30 days. Unexpectedly, the particles at 7.5 grew rapidly to an average particle size greater than 1 micron. This phenomenon was verified for batches at the 50 gram scale.
It was also observed that the final compositions or formulations of FP were stable across all concentrations tested, i.e., 0.005%, 0.01%, 0.1%, and 10%. Samples were placed in 4° C., 25° C., 40° C. stability chambers. Stability time-points: T=0d, T=1 week, T=2 weeks, T=4 weeks.
Nanocrystals prepared by the batch process were tested on stability, to assess if the particle size distribution remained with a narrow range of 400-600 nm. […]
Samples were measured for particle size, pH, osmolality and assay. […]

[4] = Thermal analysis (DSC/TGA); assay type: physicochemical
Method: The table below summarizes the testing conditions and parameters for the simultaneous thermal analysis tests. The samples were (a) Fluticasone Propionate nanocrystals, and (b) Fluticasone Propionate, stock material. The specimens were tested under a heating rate of 10° C./min starting at 30° C. until reaching a final temperature of 350° C. This process was repeated for each specimen. The experiments were performed at EBATCO, LLC, Eden Prairie, Minn.
Thermal properties of the TA particles from Example 9 were investigated using a SHIMADZU® DSC-60 and TGA-50.
Approximately 10 mg of sample was analyzed in an open aluminum pan, and heated at scanning rate of 10° C.·min^−1 from room temperature to 320° C. […] Peak of the heat of melting is at 289.42° C., with ΔHm=83.50 J/g. In comparison, peak of the heat of melting for the nanocrystals produced by the process described in Example 9 is at 275.78° C., with ΔHm=108.45 J/g (FIG. 34).

[5] = oral dosing of labeled and unlabeled conventional fluticasone propionate; cited from earlier work
[6] = Solubility of fluticasone propionate in FDA-approved solvents and excipients (RP-HPLC at 239 nm); assay type: physicochemical
Method: The specific composition of Phase I depends upon the solubility of the drug in this phase. […] The suspension was centrifuged at 10,000 rpm and the supernatant analyzed by RP-HPLC at 239 nm.

[7] = cited from earlier work
[8] = Solubility of triamcinolone acetonide in non-aqueous solvents; assay type: physicochemical; conditions: preliminary estimation; for solubility at 15 min: organic solvent or mixture, thermodynamic from solid
Method: Triamcinolone Acetonide (TA), stock was used as received from the manufacturer. Solubility of Triamcinolone Acetonide (TA) was measured in propylene glycol, polypropylene glycol, TWEEN® 20 (polysorbate 20), TWEEN 80 (polysorbate 80), PEG 400.
Initially, 5 mg of the TA was added to 10 g of solvent; the mixture was vortexed for 5 min, and sonicated for 10 min in a water bath. 1-5 mg of TA was added when the initial amount dissolved in the solvent completely—clear solution of TA in solvent. The process was continued until saturation solubility was reached. The solvent that provided the highest solubility was chosen for further development as Phase I.
The solubility of TA in propylene glycol, polypropylene glycol, PEG 400, TWEEN® 20 (polysorbate 20) and TWEEN® 80 (polysorbate 80) was evaluated. Initially, 5 mg of TA was added to these solvents and the suspension was vortexed and sonicated for 15 min in a water bath at 37° C. When the API (i.e., TA) dissolved, 1 mg of drug was added to the vial. This process was continued until a preliminary estimation of the drug in all solvents was achieved.

tap density (Tap density): 0.5677 g/mL
Structure (SMILES): CC1(C)O[C@@H]2C[C@H]3[C@@H]4CCC5=CC(=O)C=C[C@]5(C)[C@@]4(F)[C@@H](O)C[C@]3(C)[C@]2(C(=O)CO)O1 [ACX-TA crystals]
rate of dissolution in vitreous humor [1]: much slower rate of dissolution than micronized TA

Structure (SMILES): CCC(=O)O[C@]1(C(=O)SCF)[C@H](C)C[C@H]2[C@@H]3C[C@H](F)C4=CC(=O)C=C[C@]4(C)[C@@]3(F)[C@@H](O)C[C@@]21C [FP homogenized]
saturated solubility [2]: 0.04 to 0.045 mg/mL

Structure (SMILES): CCC(=O)O[C@]1(C(=O)SCF)[C@H](C)C[C@H]2[C@@H]3C[C@H](F)C4=CC(=O)C=C[C@]4(C)[C@@]3(F)[C@@H](O)C[C@@]21C [FP stock material]
time to reach saturated solubility [2]: ≤ 2 weeks
tap density (Tap density; listed as fluticasone propionate stock): 0.3278 g/mL

Structure (SMILES): CCC(=O)O[C@]1(C(=O)SCF)[C@H](C)C[C@H]2[C@@H]3C[C@H](F)C4=CC(=O)C=C[C@]4(C)[C@@]3(F)[C@@H](O)C[C@@]21C [Form A]
dissolution rate ([2]; in water at room temperature): about 1 μg/g/day
time to reach saturated solubility ([2]; incubation in an aqueous medium): 6 weeks
tap density (Tap density): 0.5786 g/mL
tap density (Tap density; listed as dried fluticasone propionate crystals prepared by the batch process): 0.5786 g/mL
agglomeration over time ([3]; after purification (FIG. 10)): did not display any agglomeration over time
average particle size on stability ([3]; phase III pH 7.5, 25 degrees C. for 30 days): greater than 1 micron

Tm (Melting Point) [4]: 289.61 °C
Structure (SMILES): CC1(C)O[C@@H]2C[C@H]3[C@@H]4CCC5=CC(=O)C=C[C@]5(C)[C@@]4(F)[C@@H](O)C[C@]3(C)[C@]2(C(=O)CO)O1 [Stock TA, as purchased]

tap density (Tap density): 0.4211 g/mL
Structure (SMILES): CC1(C)O[C@@H]2C[C@H]3[C@@H]4CCC5=CC(=O)C=C[C@]5(C)[C@@]4(F)[C@@H](O)C[C@]3(C)[C@]2(C(=O)CO)O1 [TA stock material]

Structure (SMILES): CCC(=O)O[C@]1(C(=O)SCF)[C@H](C)C[C@H]2[C@@H]3C[C@H](F)C4=CC(=O)C=C[C@]4(C)[C@@]3(F)[C@@H](O)C[C@@]21C [fluticasone propionate, (6α,11β,16α,17α)-6,9,-difluoro-11-hydroxy-16-methyl-3-oxo-17-(1-oxopropoxy) androsta-1,4-diene-17-carbothioic acid, S-fluoromethyl ester]
oral systemic bioavailability [5]: < 1%
solubility ([6]; Acetone, 25 °C, organic solvent or mixture, thermodynamic from solid, in Acetone, overnight at 25 degrees centigrade, read-out: Solubility): 63 mg/mL (≈ 126 mM)
solubility ([6]; Castor oil, 25 °C, oil or lipid, thermodynamic from solid, in Castor oil, overnight at 25 degrees centigrade, read-out: Solubility): 0.018 mg/mL (≈ 0.036 mM)
solubility ([6]; Corn oil, 25 °C, oil or lipid, thermodynamic from solid, in Corn oil, overnight at 25 degrees centigrade, read-out: Solubility): 0.0069 mg/mL (≈ 0.0138 mM)
solubility ([6]; Ethanol, 25 °C, organic solvent or mixture, thermodynamic from solid, in Ethanol, equilibrated overnight at 25 degrees centigrade, read-out: Solubility): 4.45 mg/mL (≈ 8.88 mM)
solubility ([6]; Glycerin, 25 °C, organic solvent or mixture, thermodynamic from solid, in Glycerin, overnight at 25 degrees centigrade, read-out: Solubility): 0.144 mg/mL (≈ 0.288 mM)
solubility ([6]; Methylene Chloride, 25 °C, organic solvent or mixture, thermodynamic from solid, in Methylene Chloride, overnight at 25 degrees centigrade, read-out: Solubility): 9.25 mg/mL (≈ 18.5 mM)
solubility ([6]; PEG 200, 25 °C, organic solvent or mixture, thermodynamic from solid, in PEG 200, overnight at 25 degrees centigrade, read-out: Solubility): 4.21 mg/mL (≈ 8.4 mM)
solubility ([6]; PEG 400, 25 °C, organic solvent or mixture, thermodynamic from solid, in PEG 400, overnight at 25 degrees centigrade, read-out: Solubility): 4.33 mg/mL (≈ 8.65 mM)
solubility ([6]; PHOSAL 50 PG, 25 °C, oil or lipid, thermodynamic from solid, in PHOSAL 50 PG, overnight at 25 degrees centigrade, read-out: Solubility): 0.426 mg/mL (≈ 0.851 mM)
solubility ([6]; PPG, 25 °C, organic solvent or mixture, thermodynamic from solid, in PPG, overnight at 25 degrees centigrade, read-out: Solubility): 2.23 mg/mL (≈ 4.45 mM)
solubility ([6]; Polysorbate 20, 25 °C, aqueous with cosolvent or surfactant or cyclodextrin, thermodynamic from solid, in Polysorbate 20, overnight at 25 degrees centigrade, read-out: Solubility): 7.06 mg/mL (≈ 14.1 mM)
solubility ([6]; Polysorbate 60, 25 °C, aqueous with cosolvent or surfactant or cyclodextrin, thermodynamic from solid, in Polysorbate 60, overnight at 25 degrees centigrade, read-out: Solubility): 4.91 mg/mL (≈ 9.81 mM)
solubility ([6]; Polysorbate 80, 25 °C, aqueous with cosolvent or surfactant or cyclodextrin, thermodynamic from solid, in Polysorbate 80, overnight at 25 degrees centigrade, read-out: Solubility): 4.66 mg/mL (≈ 9.3 mM)
solubility ([6]; Propylene glycol, 25 °C, organic solvent or mixture, thermodynamic from solid, in Propylene glycol, overnight at 25 degrees centigrade, read-out: Solubility): 0.764 mg/mL (≈ 1.53 mM)
solubility ([6]; Span 20, 25 °C, aqueous with cosolvent or surfactant or cyclodextrin, thermodynamic from solid, in Span 20, overnight at 25 degrees centigrade, read-out: Solubility): 0.0469 mg/mL (≈ 0.0937 mM)
solubility ([6]; Span 80, 25 °C, aqueous with cosolvent or surfactant or cyclodextrin, thermodynamic from solid, in Span 80, overnight at 25 degrees centigrade, read-out: Solubility): 0.0521 mg/mL (≈ 0.104 mM)
solubility ([6]; in Dextrose 5%, overnight at 25 degrees centigrade): 0.0053 mg/mL (≈ 0.0106 mM)
solubility ([6]; in PHOSAL 50 PG, overnight at 25 degrees centigrade): 0.6601 mg/mL (≈ 1.32 mM)
solubility ([6]; in PHOSAL 53 MCT, overnight at 25 degrees centigrade): 0.4000 mg/mL (≈ 0.799 mM)
solubility ([6]; in n-octanol, overnight at 25 degrees centigrade): 0.0873 mg/mL (≈ 0.174 mM)
solubility ([6]; oleic acid, 25 °C, oil or lipid, thermodynamic from solid, in oleic acid, overnight at 25 degrees centigrade, read-out: Solubility): 0.0136 mg/mL (≈ 0.0272 mM)
solubility ([6]; phosphate buffer, 25 °C, pH 7, aqueous buffer, thermodynamic from solid, in Phos buff pH = 7, overnight at 25 degrees centigrade, read-out: Solubility): 0.0095 mg/mL (≈ 0.019 mM)
solubility ([6]; water, 25 °C, water, thermodynamic from solid, in water, overnight at 25 degrees centigrade, read-out: Solubility): 0.00014 mg/mL (≈ 0.00028 mM)
solubility (descriptive) ([7]; in dimethyl sulfoxide and dimethyl-formamide): freely soluble
solubility (descriptive) ([7]; in methanol and 95% ethanol): slightly soluble

solubility ([8]; in PEG 400, 37° C.): 7 mg/mL (≈ 16.1 mM)
solubility ([8]; in polypropylene glycol, 37° C.): 8 mg/mL (≈ 18.4 mM)
solubility at 15 min ([8]; in Propylene glycol, sonicated in water bath at 37° C.): 14 mg/mL (≈ 32.2 mM)
solubility at 15 min ([8]; in TWEEN 20 (polysorbate 20), 37° C.): 5.5 mg/mL (≈ 12.7 mM)
solubility at 15 min ([8]; in TWEEN 80 (polysorbate 80), 37° C.): 4 mg/mL (≈ 9.21 mM)
Structure (SMILES): CC1(C)O[C@@H]2C[C@H]3[C@@H]4CCC5=CC(=O)C=C[C@]5(C)[C@@]4(F)[C@@H](O)C[C@]3(C)[C@]2(C(=O)CO)O1 [triamcinolone acetonide, (4aS,4bR,5S,6aS,6bS,9aR,10aS,10bS)-4b-fluoro-6b-glycoloyl-5-hydroxy-4a,6a,8,8-tetramethyl-4a,4b,5,6,6a,6b,9a,10,10a,10b,11,12-dodecahydro-2H-naphtho[2′,1′:4,5]indeno[1,2-d][1,3] dioxol-2-one]
water solubility ([7]; at 28° C.): 0.0175 mg/mL (≈ 0.0403 mM)
solubility (descriptive) ([7]; in water): practically insoluble
